Among the data in patent US12692232B2, “Indole carboxamide compound, preparation therefor and use thereof” (NANJING RUISHUNING MEDICAL TECHNOLOGY CO., LTD., priority 2021, dated 2026) are LVFS, LVEF and lung coefficient values, retold here.

The structures appear in SMILES notation.

The assay concerns lipopolysaccharide (LPS)-induced mouse model of sepsis. As to the kind of experiment: LPS-induced mouse model of sepsis, cardiopulmonary injury. The assay is classed as in vivo. As to conditions: 4 hours after LPS 40 mg/kg; for LVFS: model 15.2 ± 2.8; for LVEF: model 34.3 ± 2.9; for lung coefficient: LPS model 7.24%±0.21%. As to the method: A lipopolysaccharide (LPS)-induced mouse model of sepsis was used to determine the preventive and therapeutic effect of the compounds of the present invention (as exemplified by compound 1-1 obtained in Example 1) on cardiopulmonary injury caused by sepsis. The method was as follows:
Grouping of animals: 50 male C57BL/6J mice aged 6-8 weeks. The mice were randomly divided into 5 groups of 10 mice each, namely, i) a solvent control group: each animal was administered 0.9% saline; ii) a sepsis model group (LPS group): each animal was injected intraperitoneally with LPS at a dose of 40 mg/kg; iii) a treatment group of medium-dose compound 1-1 of Example (LPS+25 mg/kg of compound 1-1 obtained in Example 1): each animal was administered compound 1-1 by gavage at a dose of 25 mg/kg, followed by intraperitoneal injection of LPS at a dose of 40 mg/kg 30 minutes later; iv) a treatment group of high-dose compound 1-1 of Example 1 (LPS+50 mg/kg of compound 1-1 group obtained in Example 1): each animal was administered compound 1-1 by gavage at a dose of 50 mg/kg, followed by intraperitoneal injection of LPS at a dose of 40 mg/kg 30 minutes later; v) a treatment group of medium-dose indole analogue 3-[(1-methyl-1H-indole-2-carbonyl)amino]propionic acid disclosed in CN2019107285315 (LPS+25 mg/kg of indole analogue 3-[(1-methyl-1H-indole-2-carbonyl)amino]propionic acid disclosed in CN2019107285315): each animal was administered the indole analogue by gavage at a dose of 25 mg/kg, followed by intraperitoneal injection of LPS at a dose of 40 mg/kg 30 minutes later. 4 hours after LPS stimulation, follow-up examinations were performed in each group.
Assessment of cardiac function in mice: 4 animals from each group were used for this assay. Isoflurane was used to maintain proper anesthesia and spontaneous breathing in the mice. The mice were placed in the supine position on a constant temperature pad at 37° C., and the extremities of the mice were connected to four electrodes with conductive paste and fixed on the ultrasonic operating table. The probe was coated with ultrasound coupling agent, and placed in the lower middle part of the left sternum of the mice, and the short-axis M-mode echocardiographic images of the left ventricle adjacent to the sternum were acquired in real time. The dynamic images of 10 consecutive cardiac cycles were acquired using M-mode echocardiography, and the images were stored and analyzed offline. Left ventricular ejection fraction (LVEF) and left ventricular fraction shortening (LVFS) were calculated from left ventricular end diastolic diameter (LVEDD) and left ventricular end systolic diameter (LVESD), respectively, using the formulae: LVEF=(LVEDD^3−LVESD^3)/LVEDD^3×100% and LVFS=(LVEDD−LVESD)/LVEDD×100%.
Determination of lung coefficient: after weighting, the mice were anesthetized with pentobarbital sodium injection, and the whole lung was removed from the thorax, and the tissue around the lung was removed. Surface moisture and blood stains were wiped dry with filter paper, and the wet weight of the lung was weighed. Lung coefficient=lung wet weight […]/mouse body weight (g)×100%.
Histopathological observations: after the mice were anaesthetized with pentobarbital sodium injection, the lungs and ventricles were removed by thoracotomy and fixed in 10% neutral formaldehyde (pH=7.4) for 2 days. Routine paraffin embedding, serial sectioning, H&E staining, neutral balsam sealing and microscopic observation were performed.

Take `Cn1c(C(=O)NCCC(=O)O)cc2ccccc21` [3-[(1-methyl-1H-indole-2-carbonyl)amino]propionic acid, reference compound]: where the note is “medium-dose 25 mg/kg gavage”, the LVFS was determined as 22.9±4.0% and the LVEF was 53.2±3.8%. The lung coefficient (medium-dose 25 mg/kg) was 5.48%±0.15%.
Consider `CC(=O)OCCCNC(=O)c1c(C=O)c2ccccc2n1C` [compound 1-1, propyl 3-[(3-formyl-1-methyl-1H-indole-2-carbonyl)amino]acetate], for which the LVFS worked out at 30.7±2.2% (high-dose 50 mg/kg gavage) and 24.5±2.6% (medium-dose 25 mg/kg gavage). The LVEF by setting is: (high-dose 50 mg/kg gavage) 63.8±3.9%; (medium-dose 25 mg/kg gavage) 58.7±4.3%. For the same compound, the lung coefficient reads like this: (high-dose 50 mg/kg) 4.93%±0.12%; (medium-dose 25 mg/kg) 5.16%±0.19%.
